Assay results published in PubChem BioAssay (NCI).
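Abbreviation: GI50, concentration required for 50% inhibition of growth. TGI is the concentration that stops growth completely.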

Columns and labels:
Assay in all cases: NCI-60 cell line screen, 384-well format
[1] = tested on: NCI-H322M lung
[2] = tested on: MOLT-4 leukemia
[3] = tested on: HCT-15 colon
[4] = tested on: SR leukemia
[5] = tested on: T-47D breast
[6] = tested on: NCI-H460 NSCLC
[7] = tested on: COLO 205 colon
[8] = tested on: DU-145 prostate
[9] = tested on: SK-OV-3 ovarian
[10] = tested on: MDA-MB-231 breast
[11] = tested on: KM12 colon
[12] = tested on: MALME-3M melanoma
[13] = tested on: M14 melanoma
[14] = tested on: UACC-62 melanoma
[15] = tested on: CCRF-CEM leukemia
[16] = tested on: MDA-MB-435 melanoma
[17] = tested on: SNB-19 CNS
[18] = tested on: RXF 393 renal
[19] = tested on: U251 glioblastoma
[20] = tested on: OVCAR-8 ovarian
[21] = tested on: PC-3 prostate
[22] = tested on: MDA-MB-468 breast
[23] = tested on: UACC-257 melanoma
[24] = tested on: HL-60(TB) leukemia
[25] = tested on: BT-549 breast
[26] = tested on: RPMI-8226 leukemia
[27] = tested on: NCI-H23 lung
[28] = tested on: LOX IMVI melanoma
[29] = tested on: OVCAR-3 ovarian
[30] = tested on: NCI-H522 lung
[31] = tested on: CAKI-1 renal
[32] = tested on: OVCAR-5 ovarian
[33] = tested on: 786-0 renal
[34] = tested on: A498 renal
[35] = tested on: HOP-62 NSCLC
[36] = tested on: SW-620 colon
[37] = tested on: SK-MEL-2 melanoma
[38] = tested on: UO-31 renal
[39] = tested on: SK-MEL-5 melanoma
[40] = tested on: A549 NSCLC
[41] = tested on: TK-10 renal
[42] = tested on: NCI-H226 lung
[43] = tested on: SK-MEL-28 melanoma
[44] = tested on: MCF7 breast
[45] = tested on: SF-295 CNS
[46] = tested on: SN12C renal
[47] = tested on: OVCAR-4 ovarian
[48] = tested on: SF-539 CNS
[49] = tested on: ACHN renal
[50] = tested on: HCC-2998 colon
[51] = tested on: SF-268 CNS
[52] = tested on: K-562 leukemia
[53] = tested on: HT29 colon
[54] = tested on: NCI/ADR-RES ovarian
[55] = tested on: IGROV1 ovarian

CN(C)C/C=C/C(=O)Nc1ccc(C(=O)Nc2cccc(Nc3ncc(Cl)c(-c4c[nH]c5ccccc45)n3)c2)cc1
GI50 [1]: 20.9 nM | TGI [1]: 49.5 nM | GI50 [2]: < 10 nM | TGI [2]: 12.4 nM | GI50 [3]: 45.1 nM | TGI [3]: 213 nM | GI50 [4]: < 10 nM | TGI [4]: < 10 nM | GI50 [5]: 14.2 nM | TGI [5]: 73.3 nM | GI50 [6]: 17.3 nM | TGI [6]: 37.2 nM | GI50 [7]: < 10 nM | TGI [7]: 13.4 nM | GI50 [8]: 16.2 nM | TGI [8]: 60.2 nM | GI50 [9]: 11.4 nM | TGI [9]: 45.9 nM | GI50 [10]: < 10 nM | TGI [10]: 44.8 nM | GI50 [11]: 17.7 nM | TGI [11]: 41.1 nM | GI50 [12]: 14.7 nM | TGI [12]: 29.9 nM | GI50 [13]: 14.5 nM | TGI [13]: 29.5 nM | GI50 [14]: < 10 nM | TGI [14]: 18.7 nM | GI50 [15]: < 10 nM | TGI [15]: < 10 nM | GI50 [16]: 13.3 nM | TGI [16]: 35.4 nM | GI50 [17]: 20.1 nM | TGI [17]: 174 nM | GI50 [18]: < 10 nM | TGI [18]: < 10 nM | GI50 [19]: < 10 nM | TGI [19]: 27.4 nM | GI50 [20]: 16.5 nM | TGI [20]: 39.8 nM | GI50 [21]: 20.6 nM | TGI [21]: 54.5 nM | GI50 [22]: < 10 nM | TGI [22]: 14.4 nM | GI50 [23]: < 10 nM | TGI [23]: 21.3 nM | GI50 [24]: < 10 nM | TGI [24]: < 10 nM | GI50 [25]: < 10 nM | TGI [25]: 13.7 nM | GI50 [26]: 13.7 nM | TGI [26]: 26.8 nM | GI50 [27]: 10.6 nM | TGI [27]: 25.4 nM | GI50 [28]: < 10 nM | TGI [28]: 28.2 nM | GI50 [29]: < 10 nM | TGI [29]: 11 nM | GI50 [30]: < 10 nM | TGI [30]: < 10 nM | GI50 [31]: 14.2 nM | TGI [31]: 46.9 nM | GI50 [32]: 21.4 nM | TGI [32]: 1200 nM | GI50 [33]: 23.9 nM | TGI [33]: 83.3 nM | GI50 [34]: 17.2 nM | TGI [34]: 55.9 nM | GI50 [35]: 15.8 nM | TGI [35]: 47.9 nM | GI50 [36]: < 10 nM | TGI [36]: 42 nM | GI50 [37]: < 10 nM | TGI [37]: 13.3 nM | GI50 [38]: 105 nM | TGI [38]: 372 nM | GI50 [39]: < 10 nM | TGI [39]: 20.7 nM | GI50 [40]: 31.1 nM | TGI [40]: 110 nM | GI50 [41]: 21.8 nM | TGI [41]: 55.9 nM | GI50 [42]: 12.4 nM | TGI [42]: 33.6 nM | GI50 [43]: < 10 nM | TGI [43]: 15.2 nM | GI50 [44]: < 10 nM | TGI [44]: 166 nM | GI50 [45]: 31.4 nM | TGI [45]: 99.4 nM | GI50 [46]: 10.3 nM | TGI [46]: 29.4 nM | GI50 [47]: < 10 nM | TGI [47]: 25.4 nM | GI50 [48]: < 10 nM | TGI [48]: 19.5 nM | GI50 [49]: 20.5 nM | TGI [49]: 83 nM | GI50 [50]: < 10 nM | TGI [50]: 20.6 nM | GI50 [51]: < 10 nM | TGI [51]: 17.4 nM | GI50 [52]: < 10 nM | TGI [52]: 103 nM | GI50 [53]: 20 nM | TGI [53]: 47.5 nM | GI50 [54]: 525 nM | TGI [54]: 12200 nM | GI50 [55]: 12.5 nM | TGI [55]: 51.9 nM
